Results published in patent publication US20240360134A1, “PYRAZOLOPYRIMIDINES AND THEIR USES AS PDGFR INHIBITORS” (priority 2021, published 2024).

Columns and labels:
[1] = target: Tb-labeled inactive PDGFRβ (Homo sapiens (Human), UniProt P09619); assay: biochemical; type: binding; conditions: read-out: PDGFR Lantha IC50
[2] = target: His6-TEV-PDGFRβ (557-1016) (Homo sapiens (Human), UniProt P09619); assay: PDGFRβ HTRF Assay; type: biochemical; conditions: 800 μM ATP, 0.5 μM TK-substrate biotin peptide, 30 min pre-incubation, 3 hours reaction; read-out: PDGFR HTRF IC50
His6-TEV-PDGFRβ (557-1016), sequence (P09619 whole entry, looked up): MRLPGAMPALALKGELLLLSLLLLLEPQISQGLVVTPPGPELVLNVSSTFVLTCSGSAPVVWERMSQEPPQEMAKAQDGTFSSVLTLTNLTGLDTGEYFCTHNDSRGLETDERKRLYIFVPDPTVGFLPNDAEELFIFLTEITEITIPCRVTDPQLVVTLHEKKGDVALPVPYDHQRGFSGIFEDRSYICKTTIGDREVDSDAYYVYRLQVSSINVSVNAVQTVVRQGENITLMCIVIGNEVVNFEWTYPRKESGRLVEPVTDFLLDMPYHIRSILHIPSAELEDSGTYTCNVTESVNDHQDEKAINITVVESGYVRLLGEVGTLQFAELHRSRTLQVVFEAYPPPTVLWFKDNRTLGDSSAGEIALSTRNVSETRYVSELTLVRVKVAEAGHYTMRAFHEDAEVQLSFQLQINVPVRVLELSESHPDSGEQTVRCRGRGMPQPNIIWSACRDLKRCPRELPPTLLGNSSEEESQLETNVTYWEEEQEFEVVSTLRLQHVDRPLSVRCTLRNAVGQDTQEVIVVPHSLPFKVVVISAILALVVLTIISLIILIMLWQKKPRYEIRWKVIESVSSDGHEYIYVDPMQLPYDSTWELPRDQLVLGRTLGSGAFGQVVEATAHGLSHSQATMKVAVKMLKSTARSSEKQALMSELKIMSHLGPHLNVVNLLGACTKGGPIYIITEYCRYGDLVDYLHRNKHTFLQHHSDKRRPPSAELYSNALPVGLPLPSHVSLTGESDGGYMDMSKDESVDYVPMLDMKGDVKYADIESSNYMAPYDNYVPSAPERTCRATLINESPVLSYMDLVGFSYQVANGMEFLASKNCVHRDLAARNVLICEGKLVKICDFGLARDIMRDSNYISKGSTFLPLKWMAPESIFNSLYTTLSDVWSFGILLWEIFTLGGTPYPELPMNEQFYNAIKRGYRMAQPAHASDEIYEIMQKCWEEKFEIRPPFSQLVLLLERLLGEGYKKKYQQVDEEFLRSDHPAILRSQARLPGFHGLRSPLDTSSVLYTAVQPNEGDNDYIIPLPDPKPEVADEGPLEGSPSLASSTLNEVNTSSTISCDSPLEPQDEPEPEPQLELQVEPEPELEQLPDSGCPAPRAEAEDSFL

VEGFR2, unphosphorylated = VEGFR2, unphosphorylated (Homo sapiens (Human), UniProt P35968); assay: VEGFR ADP GLO assay; type: biochemical; conditions: 5 nM VEGFR2, 1.2 mM ATP, 1 mg/mL Srctide, 180 min
VEGFR2, unphosphorylated, sequence (P35968 whole entry, looked up): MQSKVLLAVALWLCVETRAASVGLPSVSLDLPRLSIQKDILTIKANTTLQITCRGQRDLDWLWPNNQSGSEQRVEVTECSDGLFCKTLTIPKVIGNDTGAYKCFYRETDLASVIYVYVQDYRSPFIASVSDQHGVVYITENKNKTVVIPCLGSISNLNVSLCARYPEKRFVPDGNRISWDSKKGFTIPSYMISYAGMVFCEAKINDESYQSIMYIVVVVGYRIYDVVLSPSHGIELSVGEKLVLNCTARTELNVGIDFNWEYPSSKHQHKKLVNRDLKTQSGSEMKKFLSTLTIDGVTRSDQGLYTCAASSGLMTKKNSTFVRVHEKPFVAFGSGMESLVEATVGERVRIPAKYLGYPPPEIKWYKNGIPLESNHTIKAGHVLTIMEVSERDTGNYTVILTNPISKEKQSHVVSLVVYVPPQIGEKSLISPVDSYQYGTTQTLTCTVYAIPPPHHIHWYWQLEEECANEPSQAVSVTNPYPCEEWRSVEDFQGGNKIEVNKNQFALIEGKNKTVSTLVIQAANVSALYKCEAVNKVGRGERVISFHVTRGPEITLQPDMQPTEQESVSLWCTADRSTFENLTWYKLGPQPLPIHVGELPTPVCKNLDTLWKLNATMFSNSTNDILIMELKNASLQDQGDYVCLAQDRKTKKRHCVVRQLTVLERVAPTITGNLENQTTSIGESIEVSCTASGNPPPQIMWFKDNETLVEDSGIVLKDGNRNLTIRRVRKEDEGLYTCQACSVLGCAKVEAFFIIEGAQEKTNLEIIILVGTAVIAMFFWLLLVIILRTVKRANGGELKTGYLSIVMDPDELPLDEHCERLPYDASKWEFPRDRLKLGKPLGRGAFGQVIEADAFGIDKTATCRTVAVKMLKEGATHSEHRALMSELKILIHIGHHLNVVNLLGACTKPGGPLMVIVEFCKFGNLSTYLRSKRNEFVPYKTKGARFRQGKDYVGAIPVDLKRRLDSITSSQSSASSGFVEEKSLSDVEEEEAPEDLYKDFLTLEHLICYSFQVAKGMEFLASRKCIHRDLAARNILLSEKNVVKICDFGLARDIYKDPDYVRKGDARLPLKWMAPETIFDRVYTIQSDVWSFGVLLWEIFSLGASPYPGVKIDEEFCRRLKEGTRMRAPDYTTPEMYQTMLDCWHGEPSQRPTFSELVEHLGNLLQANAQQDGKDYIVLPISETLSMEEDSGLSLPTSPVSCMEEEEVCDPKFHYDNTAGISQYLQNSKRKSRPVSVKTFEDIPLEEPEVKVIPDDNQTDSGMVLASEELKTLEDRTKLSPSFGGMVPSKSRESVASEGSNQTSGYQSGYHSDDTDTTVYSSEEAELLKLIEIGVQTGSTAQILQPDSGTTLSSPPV
How it was run: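 Luminescent ADP detection after a 180-min room-temperature reaction of srctide plus ATP (2 mg/mL and 2.4 mM in 2× mix) in pH 7.5 HEPES buffer with DTT, Pluronic and ovalbumin. Compounds, 11 points from 10 µM, first pre-incubated 30 min with enzyme (2× mix 10 nM). IC50s fitted after scaling between DMSO and 1 µM TAK-593 controls.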

PDGFRβ = PDGFRβ (Rattus norvegicus (Rat), UniProt Q05030); assay: PDGFRβ Cellular Assay (PDGFRb P-Y751 HTRF, PDGF-BB stimulated A10 cells); type: cell-based; conditions: A10 cells, 3 hours compound, 15 ng/mL PDGFbb for 10 minutes; read-out: PDGFR Cellular IC50
PDGFRβ, sequence (Q05030 whole entry, looked up): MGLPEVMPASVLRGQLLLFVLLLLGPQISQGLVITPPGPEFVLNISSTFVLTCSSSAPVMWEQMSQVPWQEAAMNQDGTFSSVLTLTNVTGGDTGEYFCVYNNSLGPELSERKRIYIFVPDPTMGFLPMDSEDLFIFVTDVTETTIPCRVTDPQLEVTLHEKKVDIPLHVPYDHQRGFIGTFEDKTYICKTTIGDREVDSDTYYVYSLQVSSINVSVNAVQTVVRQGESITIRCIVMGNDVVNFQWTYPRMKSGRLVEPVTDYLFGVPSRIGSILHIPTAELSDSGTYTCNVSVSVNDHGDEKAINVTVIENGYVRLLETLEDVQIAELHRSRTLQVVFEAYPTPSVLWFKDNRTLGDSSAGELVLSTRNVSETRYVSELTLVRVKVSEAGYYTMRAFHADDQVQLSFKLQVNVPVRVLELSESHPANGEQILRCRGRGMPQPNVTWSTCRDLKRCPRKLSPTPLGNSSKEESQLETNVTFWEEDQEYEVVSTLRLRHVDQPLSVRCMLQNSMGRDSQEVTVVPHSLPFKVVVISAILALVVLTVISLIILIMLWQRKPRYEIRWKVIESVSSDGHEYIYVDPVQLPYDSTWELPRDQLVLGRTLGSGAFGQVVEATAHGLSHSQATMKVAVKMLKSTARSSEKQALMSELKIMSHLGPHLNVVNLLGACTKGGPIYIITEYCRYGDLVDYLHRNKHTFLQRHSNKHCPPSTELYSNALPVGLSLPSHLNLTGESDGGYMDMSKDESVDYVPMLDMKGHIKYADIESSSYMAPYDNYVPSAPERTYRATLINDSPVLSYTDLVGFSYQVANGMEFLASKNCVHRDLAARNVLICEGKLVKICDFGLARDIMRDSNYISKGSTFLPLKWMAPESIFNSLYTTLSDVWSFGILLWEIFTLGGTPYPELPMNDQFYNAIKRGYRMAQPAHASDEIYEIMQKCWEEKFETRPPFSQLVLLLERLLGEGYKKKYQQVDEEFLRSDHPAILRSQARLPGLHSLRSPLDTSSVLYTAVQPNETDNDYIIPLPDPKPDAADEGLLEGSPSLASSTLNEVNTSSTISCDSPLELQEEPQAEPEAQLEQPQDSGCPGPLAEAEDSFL
How it was run: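 Rat A10 cells plated overnight were treated with compound for 3 h, stimulated with rat PDGF-BB (working stock 100 ng/mL in 10% FBS medium) for 10 min, then lysed.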

Tb-labeled inactive PDGFRβ, sequence (P09619 whole entry, looked up): as the sequence (P09619 whole entry, looked up) above

| Structure (SMILES) | IC50 [1] | IC50 [2] | IC50 (VEGFR2, unphosphorylated) | IC50 (PDGFRβ) |
| --- | --- | --- | --- | --- |
| Cc1nn(C)cc1Nc1ncc2c(Nc3cc(C(=O)NCCN4CCCC4(C)C)cnc3C)nn(C)c2n1 [Example 161, 5-((6-((1,3-dimethyl-1H-pyrazol-4-yl)amino)-1-methyl-1H-pyrazolo[3,4-d]pyrimidin-3-yl)amino)-N-(2-(2,2-dimethylpyrrolidin-1-yl)ethyl)-6-methylnicotinamide] | 13.3 nM | 1.65 nM | > 7500 nM | 24.8 nM |
| COCCn1cc(Nc2ncc3c(Nc4cc(C(=O)NCCN5CCCC5(C)C)cnc4C)nn(C)c3n2)cn1 [Example 148, N-(2-(2,2-dimethylpyrrolidin-1-yl)ethyl)-5-((6-((1-(2-methoxyethyl)-1H-pyrazol-4-yl)amino)-1-methyl-1H-pyrazolo[3,4-d]pyrimidin-3-yl)amino)-6-methylnicotinamide] | 4.3 nM | 0.74 nM | > 7500 nM | 64.9 nM |
| Cn1cc(Nc2ncc3c(Nc4cc(C(=O)NCCN5CCC6(CC6)C5)ccc4F)nn(C)c3n2)cn1 [Example 122, N-(2-(5-azaspiro[2.4]heptan-5-yl)ethyl)-4-fluoro-3-((1-methyl-6-((1-methyl-1H-pyrazol-4-yl)amino)-1H-pyrazolo[3,4-d]pyrimidin-3-yl)amino)benzamide] | 1.2 nM | 0.15 nM | > 7500 nM | 4.6 nM |
| Cc1ncc(C(=O)NCCN2CCCC2(C)C)cc1Nc1nn(C)c2nc(Nc3cccc(C4(C(=O)O)CC4)c3)ncc12 [Example 38, 1-(3-((3-((5-((2-(2,2-dimethylpyrrolidin-1-yl)ethyl)carbamoyl)-2-methylpyridin-3-yl)amino)-1-methyl-1H-pyrazolo[3,4-d]pyrimidin-6-yl)amino)phenyl)cyclopropanecarboxylic acid] | 15.3 nM | 1.59 nM | 715 nM | > 3000 nM |
| COCCn1cc(Nc2ncc3c(Nc4cc(NC(=O)CN5CCC6(CC6)C5)cnc4C)nn(C)c3n2)cn1 [Example 124, N-(5-((6-((1-(2-methoxyethyl)-1H-pyrazol-4-yl)amino)-1-methyl-1H-pyrazolo[3,4-d]pyrimidin-3-yl)amino)-6-methylpyridin-3-yl)-2-(5-azaspiro[2.4]heptan-5-yl)acetamide] | 1.6 nM | 0.35 nM | 4930 nM | 4.3 nM |
| Cc1ncc(C(=O)NCCN2CCCCC23CC3)cc1Nc1nn(C)c2nc(Nc3cnn(C)c3)ncc12 [Example 150, N-(2-(4-azaspiro[2.5]octan-4-yl)ethyl)-6-methyl-5-((1-methyl-6-((1-methyl-1H-pyrazol-4-yl)amino)-1H-pyrazolo[3,4-d]pyrimidin-3-yl)amino)nicotinamide] | 1.2 nM | 0.3 nM | 1550 nM | 4.3 nM |
| COCCn1cc(Nc2ncc3c(Nc4cc(NC(=O)CN5CCCC5(C)C)cnc4C)nn(C)c3n2)cn1 [Example 125, 2-(2,2-dimethylpyrrolidin-1-yl)-N-(5-((6-((1-(2-methoxyethyl)-1H-pyrazol-4-yl)amino)-1-methyl-1H-pyrazolo[3,4-d]pyrimidin-3-yl)amino)-6-methylpyridin-3-yl)acetamide] | 1.7 nM | 0.34 nM | > 7500 nM | 2.7 nM |
| COCCn1cc(Nc2ncc3c(Nc4cc(C(=O)NCCN5CCCC56CCC6)cnc4C)nn(C)c3n2)cn1 [Example 147, N-(2-(5-azaspiro[3.4]octan-5-yl)ethyl)-5-((6-((1-(2-methoxyethyl)-1H-pyrazol-4-yl)amino)-1-methyl-1H-pyrazolo[3,4-d]pyrimidin-3-yl)amino)-6-methylnicotinamide] | 2.1 nM | 0.38 nM | 2670 nM | 14.7 nM |
| Cc1ncc(C(=O)NCCN2CC(C)(C)C2)cc1Nc1nn(C)c2nc(Nc3cncnc3)ncc12 [Example 55, N-(2-(3,3-dimethylazetidin-1-yl)ethyl)-6-methyl-5-((1-methyl-6-(pyrimidin-5-ylamino)-1H-pyrazolo[3,4-d]pyrimidin-3-yl)amino)nicotinamide] | 9.5 nM | 0.55 nM | > 7500 nM | 275 nM |
| Cc1ncc(C(=O)NCCN2CCCC23CC3)cc1Nc1nn(C)c2nc(Nc3cncnc3)ncc12 [Example 57, N-(2-(4-azaspiro[2.4]heptan-4-yl)ethyl)-6-methyl-5-((1-methyl-6-(pyrimidin-5-ylamino)-1H-pyrazolo[3,4-d]pyrimidin-3-yl)amino)nicotinamide] | 5.6 nM | 0.97 nM | > 7500 nM | 15.6 nM |
| Cc1ncc(C(=O)NCCN2CCCC2(C)C)cc1Nc1nn(C)c2nc(Nc3ccnc(N4CCOCC4)c3)ncc12 [Example 101, N-(2-(2,2-dimethylpyrrolidin-1-yl)ethyl)-6-methyl-5-((1-methyl-6-((2-morpholinopyridin-4-yl)amino)-1H-pyrazolo[3,4-d]pyrimidin-3-yl)amino)nicotinamide] | 2.2 nM | 0.38 nM | > 7500 nM | 15.5 nM |
| Cc1ncc(C(=O)NCCN2CCC(C)(C)C2)cc1Nc1nn(C)c2nc(Nc3cnn(C)c3)ncc12 [Example 86, N-(2-(3,3-dimethylpyrrolidin-1-yl)ethyl)-6-methyl-5-((1-methyl-6-((1-methyl-1H-pyrazol-4-yl)amino)-1H-pyrazolo[3,4-d]pyrimidin-3-yl)amino)nicotinamide] | 2.2 nM | 0.33 nM | > 7500 nM | 18.2 nM |
| Cc1ncc(NC(=O)CN2CCC[C@@H]2C)cc1Nc1nn(C)c2nc(Nc3cnn(C4COC4)c3)ncc12 [Example 144, (S)—N-(6-methyl-5-((1-methyl-6-((1-(oxetan-3-yl)-1H-pyrazol-4-yl)amino)-1H-pyrazolo[3,4-d]pyrimidin-3-yl)amino)pyridin-3-yl)-2-(2-methylpyrrolidin-1-yl)acetamide] | 2.8 nM | 0.35 nM | > 7500 nM | 5.1 nM |
| Cc1ncc(C(=O)NCCN(CCCO)C2CCCC2)cc1Nc1nn(C)c2nc(Nc3cnn(C)c3)ncc12 [Example 96, N-(2-(cyclopentyl(3-hydroxypropyl)amino)ethyl)-6-methyl-5-((1-methyl-6-((1-methyl-1H-pyrazol-4-yl)amino)-1H-pyrazolo[3,4-d]pyrimidin-3-yl)amino)nicotinamide] | 2.8 nM | 0.43 nM | > 7500 nM | 139 nM |
| Cc1ncc(C(=O)NCCN2[C@H](C)CCC[C@@H]2C)cc1Nc1nn(C)c2nc(Nc3cncnc3)ncc12 [Example 14, N-(2-((2S,6R)-2,6-dimethylpiperidin-1-yl)ethyl)-6-methyl-5-((1-methyl-6-(pyrimidin-5-ylamino)-1H-pyrazolo[3,4-d]pyrimidin-3-yl)amino)nicotinamide] | 8.5 nM | 0.89 nM | ~7130 nM | 109 nM |
| Cc1ncc(C(=O)NCCN2CC3CCC2CC3)cc1Nc1nn(C)c2nc(Nc3cncnc3)ncc12 [Example 6, N-(2-(2-azabicyclo[2.2.2]octan-2-yl)ethyl)-6-methyl-5-((1-methyl-6-(pyrimidin-5-ylamino)-1H-pyrazolo[3,4-d]pyrimidin-3-yl)amino)nicotinamide] | 5.2 nM | 0.59 nM | > 7500 nM | 102 nM |
| Cc1ncc(C(=O)NCCN2CCCC2(C)C)cc1Nc1nn(C)c2nc(Nc3ccc(=O)[nH]n3)ncc12 [Example 36, N-(2-(2,2-dimethylpyrrolidin-1-yl)ethyl)-6-methyl-5-((1-methyl-6-((6-oxo-1,6-dihydropyridazin-3-yl)amino)-1H-pyrazolo[3,4-d]pyrimidin-3-yl)amino) nicotinamide] | 88.3 nM | 4.11 nM | > 7500 nM | > 3000 nM |
| COCCn1cc(Nc2ncc3c(Nc4cc(NC(=O)CN5CCCC56CCC6)cnc4C)nn(C)c3n2)cn1 [Example 132, N-(5-((6-((1-(2-methoxyethyl)-1H-pyrazol-4-yl)amino)-1-methyl-1H-pyrazolo[3,4-d]pyrimidin-3-yl)amino)-6-methylpyridin-3-yl)-2-(5-azaspiro[3.4]octan-5-yl)acetamide] | 2 nM | 0.35 nM | > 7500 nM | 3.2 nM |
| Cc1ncc(C(=O)NCCN2CCOCC23CC3)cc1Nc1nn(C)c2nc(Nc3cncnc3)ncc12 [Example 13, N-(2-(7-oxa-4-azaspiro[2.5]octan-4-yl)ethyl)-6-methyl-5-((1-methyl-6-(pyrimidin-5-ylamino)-1H-pyrazolo[3,4-d]pyrimidin-3-yl)amino)nicotinamide] | 12.8 nM | 1.55 nM | > 7500 nM | 152 nM |
| Cc1ncc(C(=O)NCCN2CC3CCC2CC3)cc1Nc1nn(C)c2nc(Nc3cnn(C)c3)ncc12 [Example 85, N-(2-(2-azabicyclo[2.2.2]octan-2-yl)ethyl)-6-methyl-5-((1-methyl-6-((1-methyl-1H-pyrazol-4-yl)amino)-1H-pyrazolo[3,4-d]pyrimidin-3-yl)amino)nicotinamide] | 1.7 nM | 0.27 nM | 6600 nM | 71.3 nM |
